Test results from patent US12173012B2, “Indolocarbazole analogs of staurosporine and methods of synthesis thereof” (priority 2020, dated 2024).
Where two headings read alike, the source gives them in different places.

Experiments:
[1] = system: MDA-MB-231 breast cancer cell line; settings: read-out: MDA-MB-231 IC50; MDA-MB-231 cells, 72 h incubation, MTS readout
[2] = system: HMLE breast cancer cell line; settings: for IC50: read-out: HMLE IC50
[3] = system: MDA-MB-231 breast cancer cell line; test: cells; settings: Homo sapiens, MDA-MB-231, 72 h, read-out: MDA-MB-231 IC50

SMILES	IC50 [1] [nM]	fold less active/potent than staurosporine against HMLE cell line [2] [fold]	IC50 [2] [nM]	IC50 [3] [nM]
CN[C@@H]1C[C@H]2O[C@@](C)([C@@H]1OC)n1c3ccc(O)cc3c3c4c(c5c6ccccc6n2c5c31)C(=O)NC4 [Compound 13, 9-OH staurosporine]	2	5.6	27.5	–
CN[C@@H]1C[C@H]2O[C@@](C)([C@@H]1OC)n1c3cc(O)ccc3c3c4c(c5c6ccccc6n2c5c31)C(=O)NC4 [Compound 14, 10-OH staurosporine]	3.4	12.0	58.7	–
CN[C@@H]1C[C@H]2O[C@@](C)([C@@H]1OC)n1c3ccccc3c3c4c(c5c6ccccc6n2c5c31)C(=O)NC4 [Staurosporine]	–	–	–	2.5
